The source of these data is patent publication US9914750B2, “Synthetic peptides and peptide mimetics” (University of Louisville Research Foundation, priority 2007, dated 2018).

Entries after “also recorded” stand apart in the source; their conditions may differ. No end group written: not given here.

Data set [1] has as its system RAW 264.7 cells. The data set is described as follows: Assay for inflammation: TNFα secretion with peptides alone (ELISA). In kind it is cell-based, mouse. As for the experimental part:
FIGS. 15A and 15B. FIG. 15A. Inhibition of endotoxin-stimulated TNFα secretion. RAW 264.7 macrophage cells were stimulated with 100 ng/ml LPS in the presence or absence of the PSP-derived peptides GK7, KL11 or GL13 (200 μg/ml). Polymyxin B (PMX) was used as a positive control. Further controls consisted of peptides alone without LPS stimulation. TNFα secretion was analyzed by ELISA of the RAW culture medium. The data are from triplicate RAW culture dishes for each condition. *) different from LPS alone P<0.03, **) P<0.0002. FIG. 15B. Dose response curve for the inhibition of LPS-induced TNFα secretion by GL-13.
To determine if the PSP peptides cause an inflammatory response in RAW 264.7 cells, the cells were incubated with each peptide for 24 h and TNFα secretion was quantitated by ELISA.
The vaccine adjuvant monophosphoryl lipid A (MPLA) a low-toxicity derivative of LPS was used to stimulate RAW cells in the presence or absence of PSP peptides (200 μg/ml) or the anti-inflammatory peptide polymyxin B (PMX). Control samples were incubated with the peptides alone.
A general note: An ELISA detects its analyte on a solid surface through an enzyme-linked reagent.

A further data set deals with C57BL/6 mice. The data set is described as follows: LPS sepsis model, D-galactosamine sensitized mice. In kind it is in vivo. As for the experimental part:
FIG. 18. GL-13 Protects Mice in an LPS Sepsis Model. C57BL/6 mice were sensitized with D-galactosamine and injected with 100 ng/mouse (50 μg/kg) of P. aeruginosa LPS that had been preincubated for 1 h RT with or without 100 μg/mouse of GL-13. Controls received LPS and 0.9% saline. […] The results are from two independent experiments.
C57BL/6 mice were sensitized with D-galactosamine and injected with 100 ng/mouse (50 μg/kg) of P. aeruginosa LPS that had been preincubated for 1 h RT with or without 100 μg/mouse of GL-13 (FIG. 18). Controls received LPS and 0.9% saline. […] The results are from two independent experiments.

Data set [2] relates to RAW 264.7 cells. The data set is described as follows: Cell death assay, trypan blue. In kind it is cell-based, mouse. Conditions: 200 μg/ml, 24 h. The method, then:
FIG. 21: RAW Cell Viability. RAW 264.7 cells were incubated with 200 μg/ml of PSP peptides for 24 h. At the end of the incubation period the cells were stained with trypan blue and photographed in the light microscope. No significant cell death was detected with any of the peptides.
The inventors have used three different assays for analysis of cytotoxicity in mammalian cells: trypan blue exclusion, […], and ATP production. Experiments have been performed with rat pituitary GH4C1 cells and mouse RAW 264.7 cells. The cells were incubated with PSP peptides for 24 h followed by staining with trypan blue to identify permeabilized and dead cells. […] Clear cytotoxicity was noted when the cells were incubated with LPS.
RAW 264.7 cells were incubated with 200 μg/ml of PSP peptides for 24 h. At the end of the incubation period the cells were stained with trypan blue and photographed in the light microscope. No significant cell death was detected with any of the peptides (FIG. 21).

Another data set has as its system sheep red blood cells. The data set is described as follows: Hemagglutination assay. Type of data set: cell-based. Conditions: PBS, absence of serum, 2 h. As for the experimental part:
FIG. 22: Hemagglutination of sheep red blood cells. RBCs were washed in PBS and incubated for 2 h in microtiter plates in PBS±5% fetal calf serum. Peptide concentrations were 83 μg/ml. The microtiter plate was imaged. Agglutinated red blood cells form a wide mat of cells, while non-agglutinated cells form a button shaped pellet.
Briefly, unmodified sheep erythrocytes (Cappel, M P Biomedicals, Irvine, Calif.) were washed in PBS and suspended at 1% in PBS. Diluted erythrocytes and 20 μg/ml of each peptide in PBS were mixed in polypropylene microtiter plates (120 μl per well) and incubated for 2 h at 35° C. The plates were imaged on a Kodak Image station.

For data set [3] the following is noted: preliminary results; mice I.P. injection.

Consider “GQIINLKASLDLL-NH2 [GL13-NH2, GQIINLKASLDLL-(CONH2)]”, for which the “TNFα secretion with peptide alone” value in the data set on RAW 264.7 cells [1] is on record as “did not stimulate TNFα secretion”. The “lethality after intra-peritoneal injection” value in the data set with C57BL/6 mice is “did not cause lethality”. The “cell death of RAW 264.7 macrophages, trypan blue” value in the data set on RAW 264.7 cells [2] is recorded as “did not stimulate TNFα secretion or cause macrophage cell death; also recorded: did not cause cell death; also recorded: not cytotoxic to macrophages”. Besides, the “hemagglutination (words)” value with sheep red blood cells was “caused passive hemagglutination”; in the data set on sheep red blood cells (listed as GL-13-NH2), “caused hemagglutination”. Further, the “toxicity” value in data set [3] is recorded as “low toxicity”.
